Columns and labels:
[1] = system: HL-60(TB); experiment: cells; format: cell-based, human; conditions: Homo sapiens, HL-60, HL-60(TB); one dose 10 µM; read-out: Growth inhibition percentage (GI%)
[2] = system: K-562; experiment: NCI antitumor screen (SRB); format: cell-based; conditions: Homo sapiens, K562, read-out: Growth inhibition percentage (GI%)
[3] = system: MOLT-4; experiment: NCI antitumor screen (SRB); format: cell-based; conditions: Homo sapiens, one dose 10 µM, read-out: Growth inhibition percentage (GI%)
[4] = system: A549/ATCC; experiment: NCI antitumor screen (SRB); format: cell-based; conditions: Homo sapiens, one dose 10 µM, read-out: Growth inhibition percentage (GI%)
[5] = system: HOP-62; experiment: NCI antitumor screen (SRB); format: cell-based; conditions: Homo sapiens, HOP-62, read-out: Growth inhibition percentage (GI%)
[6] = system: NCI-H522; experiment: NCI antitumor screen (SRB); format: cell-based; conditions: Homo sapiens, NCI-H522, read-out: Growth inhibition percentage (GI%)
[7] = system: U251; experiment: NCI antitumor screen (SRB); format: cell-based; conditions: Homo sapiens, U-251, one dose 10 µM, read-out: Growth inhibition percentage (GI%)
[8] = system: SK-MEL-2; experiment: NCI antitumor screen (SRB); format: cell-based; conditions: Homo sapiens, SK-MEL-2, read-out: Growth inhibition percentage (GI%)
[9] = system: UACC-257; experiment: NCI antitumor screen (SRB); format: cell-based, human; conditions: Homo sapiens; UACC-257; one dose 10 µM; read-out: Growth inhibition percentage (GI%)
[10] = system: OVCAR-8; experiment: NCI antitumor screen (SRB); format: cell-based; conditions: Homo sapiens, one dose 10 µM, read-out: Growth inhibition percentage (GI%)
[11] = system: full panel of 59 cancer cell lines; experiment: NCI antitumor screen, full panel; conditions: one dose 10 µM
[12] = system: CCRF-CEM; experiment: NCI antitumor screen (SRB); format: cell-based; conditions: Homo sapiens, one dose 10 µM, read-out: Growth inhibition percentage (GI%)
[13] = system: NCI-H226; experiment: NCI antitumor screen (SRB); format: cell-based; conditions: Homo sapiens, one dose 10 µM, read-out: Growth inhibition percentage (GI%)
[14] = system: HT29; experiment: NCI antitumor screen (SRB); format: cell-based; conditions: Homo sapiens, HT-29, one dose 10 µM, read-out: Growth inhibition percentage (GI%)
[15] = system: SK-OV-3; experiment: NCI antitumor screen (SRB); format: cell-based; conditions: Homo sapiens, one dose 10 µM, read-out: Growth inhibition percentage (GI%)
[16] = system: A498; experiment: NCI antitumor screen (SRB); format: cell-based; conditions: Homo sapiens, one dose 10 µM, read-out: Growth inhibition percentage (GI%)
[17] = system: UO-31; experiment: NCI antitumor screen (SRB); format: cell-based, human; conditions: Homo sapiens; UO-31; one dose 10 µM; read-out: Growth inhibition percentage (GI%)
[18] = system: PC-3; experiment: NCI antitumor screen (SRB); format: cell-based; conditions: Homo sapiens, one dose 10 µM, read-out: Growth inhibition percentage (GI%)
[19] = system: T-47D; experiment: NCI antitumor screen (SRB); format: cell-based; conditions: Homo sapiens, T47D, one dose 10 µM, read-out: Growth inhibition percentage (GI%)
[20] = system: SR; experiment: NCI antitumor screen (SRB); format: cell-based; conditions: Homo sapiens, one dose 10 µM, read-out: Growth inhibition percentage (GI%)
[21] = system: HCT-116; experiment: NCI antitumor screen (SRB); format: cell-based; conditions: Homo sapiens, read-out: Growth inhibition percentage (GI%)

SMILES	inhibition at 10 µM [1]	inhibition at 10 µM [2]	inhibition at 10 µM [3]	inhibition at 10 µM [4]	inhibition at 10 µM [5]	inhibition at 10 µM [6]	inhibition at 10 µM [8]	inhibition at 10 µM [9]	PCE: positive cytotoxic effect (number of cell lines with GI 10 to 100% / total number of cell lines) [11]	inhibition at 10 µM [12]	inhibition at 10 µM [14]	inhibition at 10 µM [18]	other results
CS(=O)(=O)c1ccc(C(=O)NN=Cc2ccccc2)cc1 [Compound 4, N'-Benzylidene-4-(methylsulfonyl)benzohydrazide]	60.3%	11.3%	25.5%	28.5%	12%	42.1%	21.5%	44.2%	10/59				inhibition at 10 µM [7]: 20.4%; inhibition at 10 µM [10]: 15.1%
CS(=O)(=O)c1ccc(C(=O)NN=Cc2cccnc2)cc1 [Compound 5, 4-(Methylsulfonyl)-N'-(pyridin-3-ylmethylene)benzohydrazide]	20.5%	18.8%		10.6%	16.5%	15.1%			13/59	11.1%	13.3%	17.9%	inhibition at 10 µM [13]: 11.9%; inhibition at 10 µM [15]: 16.9%; inhibition at 10 µM [16]: 11.2%; inhibition at 10 µM [17]: 16.3%; inhibition at 10 µM [19]: 13.7%
CS(=O)(=O)c1ccc(C(=O)NN=Cc2ccc(Cl)cc2)cc1 [Compound 7, N'-(4-Chlorobenzylidene)-4-(methylsulfonyl)benzohydrazide]	52.1%	14%	29.4%			15.7%	12.8%		7/59			22.8%	inhibition at 10 µM [16]: 12.3%
CS(=O)(=O)c1ccc(C(=O)NN=Cc2ccc(F)cc2)cc1 [Compound 8, N'-(4-Fluorobenzylidene)-4-(methylsulfonyl)benzohydrazide]	23.1%	13.6%	23.9%	11.1%		15.9%		18.4%	9/59	11.8%			inhibition at 10 µM [20]: 20.2%; inhibition at 10 µM [21]: 10.8%
COc1ccc(C=NNC(=O)c2ccc(S(C)(=O)=O)cc2)cc1 [Compound 10, N'-(4-Methoxybenzylidene)-4-(methylsulfonyl)benzohydrazide]	42.9%		21.1%	29.8%		20.8%	11.8%	29%	11/59	10.6%	10.8%	13.8%	inhibition at 10 µM [13]: 13.4%; inhibition at 10 µM [10]: 11.3%
CS(=O)(=O)c1ccc(C(=O)N/N=C/c2ccc(O)cc2)cc1 [Compound 11]	50.5%	26.2%	32.5%			11.7%			5/59			10.9%	
CN(C)c1ccc(C=NNC(=O)c2ccc(S(C)(=O)=O)cc2)cc1 [Compound 12, N'-(4-(Dimethylamino)benzylidene)-4-(methylsulfonyl)benzohydrazide]	38%	17.2%	29.8%	28.4%	11.4%	40.4%		39.2%	9/59		20.5%		inhibition at 10 µM [17]: 11.2%

From PMC8288134, “Synthesis, potential antitumor activity, cell cycle analysis, and multitarget mechanisms of novel hydrazones incorporating a 4-methylsulfonylbenzene scaffold: a molecular docking study” (Journal of Enzyme Inhibition and Medicinal Chemistry, 2021)
